The results in this text go back to patent US12351574B2, “Selective ligands for modulation of GIRK channels” (Northeastern University, priority 2018, dated 2025).

In this experiment the target is T1, GIRK1/4 (Homo sapiens, UniProt P48544+P48549).
T1 sequence (P48549 1-501): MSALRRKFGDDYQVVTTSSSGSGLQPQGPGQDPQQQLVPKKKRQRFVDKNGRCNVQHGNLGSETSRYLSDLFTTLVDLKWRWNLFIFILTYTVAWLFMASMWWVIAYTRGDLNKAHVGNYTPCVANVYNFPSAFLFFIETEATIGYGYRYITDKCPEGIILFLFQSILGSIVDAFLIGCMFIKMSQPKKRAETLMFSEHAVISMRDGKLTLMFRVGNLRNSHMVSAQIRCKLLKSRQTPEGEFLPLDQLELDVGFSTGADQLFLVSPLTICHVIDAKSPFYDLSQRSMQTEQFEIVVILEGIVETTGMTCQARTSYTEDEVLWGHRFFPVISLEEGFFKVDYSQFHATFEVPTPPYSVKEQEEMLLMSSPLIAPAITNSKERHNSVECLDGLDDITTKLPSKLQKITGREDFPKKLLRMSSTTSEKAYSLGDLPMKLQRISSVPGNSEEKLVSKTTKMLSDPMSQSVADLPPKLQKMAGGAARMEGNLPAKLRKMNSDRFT
T1 sequence (P48544 1-419): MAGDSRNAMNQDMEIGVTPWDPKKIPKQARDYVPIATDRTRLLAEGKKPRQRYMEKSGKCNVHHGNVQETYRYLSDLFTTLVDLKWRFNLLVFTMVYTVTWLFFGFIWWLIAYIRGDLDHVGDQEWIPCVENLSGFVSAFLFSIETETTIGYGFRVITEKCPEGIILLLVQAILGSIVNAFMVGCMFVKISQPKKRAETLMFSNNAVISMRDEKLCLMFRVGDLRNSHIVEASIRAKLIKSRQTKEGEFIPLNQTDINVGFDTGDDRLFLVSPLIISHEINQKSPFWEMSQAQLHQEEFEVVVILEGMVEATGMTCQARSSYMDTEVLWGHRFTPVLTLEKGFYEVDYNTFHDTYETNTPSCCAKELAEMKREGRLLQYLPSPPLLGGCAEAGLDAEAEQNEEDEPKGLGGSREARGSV
The experiment in a line: diC8-PIP2 concentration-response (NPo), inside-out macropatches from Xenopus oocytes, GIRK1/4. Format: cell-based. Also on record: expressed in transfected cells; host or cells: Xenopus laevis oocytes (cRNA injection). As to conditions: in the presence of 10 μM compound; for apparent affinity of GIRK1/4 channels for diC8-PIP2: control 48.4±8 μM. The text has this:
The inventors next turned to inside-out macropatches from Xenopus oocytes to compare changes in the PIP2 sensitivity by examining diC8 concentration-responses in the absence and presence of saturating concentrations of each of the activating compounds. […] In FIG. 14B, the control plot overlays the GAT1508 and GAT1521 plots; only ML297 was able to left-shift the sensitivity of GIRK1/4 heteromers to PIP2, while both GAT1508 and GAT1521 were ineffective in changing the sensitivity of these heteromers to PIP2.
Xenopus laevis oocyte expression: Plasmid DNAs of GIRK channel subunits were linearized prior to in vitro transcription. Capped RNAs were transcribed using mMESSAGE mMACHINE T7 Transcription Kit (Thermo Fisher Scientific). Xenopus oocytes were surgically extracted, dissociated and defolliculated by collagenase treatment, and microinjected with 50 nl of a water solution containing 1 ng of each GIRK subunit RNA. For TEVC experiments, oocytes were kept 2 days at 17° C. before recording, while for NPo experiments oocytes were incubated for up to 4 days at 17° C.
Oocyte macropatch studies: Macropatch GIRK channel activity was recorded from devitellinized oocytes under the inside-out mode of standard patch clamp methods using an AM2400 patch clamp amplifier (A-M systems). […] Oocytes were bathed with a solution comprising (in mM): 96 KCl, 5 EGTA, 1 MgATP and 10 HEPES (pH 7.4). Current amplitudes were measured at −80 mV with a sampling rate of 10 kHz. Data were analyzed using WinEDR and Clampfit software (Molecular Devices).

Turning to `Cc1cc(NC(=O)Nc2ccc(Br)s2)n(-c2ccccc2)n1` [GAT1508, 1-(5-bromothiophen-2-yl)-3-(3-methyl-1-phenyl-1H-pyrazol-5-yl)urea], the “apparent affinity of GIRK1/4 channels for diC8-PIP2” value worked out at 46 ± 7.4 µM. On the same count and under the same terms, to `Cc1cc(NC(=O)Nc2ccc(C)s2)n(-c2ccccc2)n1` [GAT1521, 1-(3-methyl-1-phenyl-1H-pyrazol-5-yl)-3-(5-methylthiophen-2-yl)urea] belongs 51 ± 6.5 µM.

Regarding `Cc1cc(NC(=O)Nc2ccc(F)c(F)c2)n(-c2ccccc2)n1` [ML297, reference compound], the “apparent affinity of GIRK1/4 channels for diC8-PIP2” value is 17.4 ± 2 µM. Further, under “control 4.4±0.2”, the “EMAX of diC8-PIP2 response (NPo), GIRK1/4” value worked out at 5.4±0.2.
